# Tests used:
# [1] = molecular target: T1, C-X-C chemokine receptor type 3 (Homo sapiens, UniProt P49682); test: Antagonist activity at human recombinant CXCR3 expressed in CHO-K1 cells measured after 10 mins in presence of CXCL10 by FLIPR analysis
# T1 sequence (P49682 whole entry): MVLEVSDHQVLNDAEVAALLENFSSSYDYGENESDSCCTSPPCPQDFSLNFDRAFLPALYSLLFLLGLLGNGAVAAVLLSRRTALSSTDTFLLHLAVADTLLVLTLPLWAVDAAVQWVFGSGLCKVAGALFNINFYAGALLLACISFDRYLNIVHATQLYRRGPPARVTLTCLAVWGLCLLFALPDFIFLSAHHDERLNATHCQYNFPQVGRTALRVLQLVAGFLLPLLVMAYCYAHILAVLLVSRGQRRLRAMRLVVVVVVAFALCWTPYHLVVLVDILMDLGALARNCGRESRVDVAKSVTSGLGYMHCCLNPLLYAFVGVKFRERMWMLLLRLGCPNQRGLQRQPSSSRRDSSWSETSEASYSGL
# [2] = molecular target: T1, C-X-C chemokine receptor type 3; test: Antagonist activity at human recombinant CXCR3 in human venous blood assessed as receptor internalization measured for 30 mins in presence of CXCL10 by flow cytometric analysis
# [3] = molecular target: hERG (KCNH2) (Homo sapiens, UniProt Q12809); test: Inhibition of hERG expressed in CHO cells at 3 uM at -80 mV holding potential assessed as current block incubated for 3 mins by Qpatch clamp method relative to control
# hERG (KCNH2), sequence (Q12809 whole entry): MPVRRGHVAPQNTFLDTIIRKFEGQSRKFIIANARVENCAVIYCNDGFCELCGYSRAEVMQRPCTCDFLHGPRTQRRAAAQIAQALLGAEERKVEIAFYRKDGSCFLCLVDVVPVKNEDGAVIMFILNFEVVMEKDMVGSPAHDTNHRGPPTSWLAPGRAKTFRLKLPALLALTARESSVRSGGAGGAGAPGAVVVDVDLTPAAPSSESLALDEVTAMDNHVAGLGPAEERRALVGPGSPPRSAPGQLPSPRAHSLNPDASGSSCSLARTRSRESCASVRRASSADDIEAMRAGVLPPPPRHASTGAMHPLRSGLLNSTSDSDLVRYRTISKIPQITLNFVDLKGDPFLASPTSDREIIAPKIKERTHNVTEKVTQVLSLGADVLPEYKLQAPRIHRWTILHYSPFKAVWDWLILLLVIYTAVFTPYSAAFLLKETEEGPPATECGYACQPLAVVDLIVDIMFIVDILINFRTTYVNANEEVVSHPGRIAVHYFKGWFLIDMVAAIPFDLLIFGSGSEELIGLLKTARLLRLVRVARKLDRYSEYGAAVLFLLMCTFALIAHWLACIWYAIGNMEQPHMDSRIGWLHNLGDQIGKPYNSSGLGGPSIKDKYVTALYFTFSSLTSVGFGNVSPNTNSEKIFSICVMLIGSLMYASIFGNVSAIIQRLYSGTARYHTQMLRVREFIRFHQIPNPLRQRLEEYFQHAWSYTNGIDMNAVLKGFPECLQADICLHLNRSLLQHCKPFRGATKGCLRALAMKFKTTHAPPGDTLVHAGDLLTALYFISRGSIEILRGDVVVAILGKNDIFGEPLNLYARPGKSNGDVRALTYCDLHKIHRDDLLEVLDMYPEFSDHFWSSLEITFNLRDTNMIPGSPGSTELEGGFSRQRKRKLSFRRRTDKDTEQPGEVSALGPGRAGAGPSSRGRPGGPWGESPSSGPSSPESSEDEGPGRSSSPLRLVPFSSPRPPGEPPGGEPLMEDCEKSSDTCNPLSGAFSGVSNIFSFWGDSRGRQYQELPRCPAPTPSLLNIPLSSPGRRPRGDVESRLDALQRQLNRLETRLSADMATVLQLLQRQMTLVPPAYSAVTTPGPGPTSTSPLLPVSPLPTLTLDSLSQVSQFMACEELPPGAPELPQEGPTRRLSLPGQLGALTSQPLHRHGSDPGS
# [4] = in vitro; details: human, microsomes
# [5] = Lipophilicity, log D of the compound at pH 7.4; details: buffer
# [6] = Solubility of the compound in FeSSIF; details: simulated gi fluid
# [7] = Unbound fraction in mouse plasma by equilibrium based LC-MS/MS analysis
# [8] = in vivo; details: Balb/c, mouse, po, 10 mg/kg
# [9] = in vivo; details: Balb/c, mouse, po, 10 mg/kg; remark: listed apart in the source
# [10] = in vivo; details: Balb/c, mouse, po, 10 mg/kg; remark: listed apart in the source
# [11] = in vitro; details: mouse, microsomes
# [12] = Solubility of the compound in FaSSIF; details: simulated gi fluid
# [13] = Unbound fraction in human plasma by equilibrium based LC-MS/MS analysis
IC50 [1],IC50 [2],"microsomal CLint at 0.25 h, 1 µM [4]",logD [5],solubility [6],fraction unbound [7],Cmax [8],Tmax [9],AUC [10],"microsomal CLint at 0.25 h, 1 µM [11]",solubility [12],fraction unbound [13],Structure (SMILES),"inhibition at 0.05 h, 3 µM [3]"
2.6 nM,143 nM,,,,,,,,,,,C[C@@H]1CN(c2sc(C(F)(F)F)nc2-c2nc3ccccc3[nH]2)CCN1C(=O)Cn1c(=O)[nH]c2cccnc21,53%
,,,,,,,,,,,,Cc1nc(C)n(CC(=O)N2CCN(c3sc(C(F)(F)F)nc3-c3nc4ccc(S(C)(=O)=O)cc4[nH]3)C[C@H]2C)n1,8%
3.8 nM,580 nM,,,,,,,,,,,Cc1nc(C)n(CC(=O)N2CCN(c3sc(C(F)(F)F)nc3-c3nc4ccc(OC5CNC5)cc4[nH]3)C[C@H]2C)n1,0%
,,,,,,,,,,,,COC1CCN(CC(=O)N2CCN(c3sc(C(F)(F)F)nc3-c3nc4ccccc4[nH]3)C[C@H]2C)C1 (stereo partly drawn),85%
,,,,,,,,,,,,C[C@@H]1CN(c2sc(C(F)(F)F)nc2-c2nc3ccccc3[nH]2)CCN1C(=O)CN1C(=O)OC[C@@H]1c1ccccc1,83%
5.8 nM,1140 nM,,,,,,,,,,,Cc1nc(C)n(CC(=O)N2CCN(c3sc(C(F)(F)F)nc3-c3nc4ccc(-n5cncn5)cc4[nH]3)C[C@H]2C)n1,3%
4.6 nM,,131 µL/min/mg,,,,,,,,,,C[C@@H]1CN(c2sc(C(F)(F)F)nc2-c2nc3ccc(CO)cc3[nH]2)CCN1C(=O)Cn1cnc2cccnc21,12%
,,,,,,,,,,,,Cc1nc(C)n(CC(=O)N2CCN(c3sc(C(F)(F)F)nc3-c3nc4ccc(O)c(F)c4[nH]3)C[C@H]2C)n1,15%
,,,,,,,,,,,,Cc1nc(C)n(CC(=O)N2CCN(c3sc(C(F)(F)F)nc3-c3nc4ccc(N5CCOCC5)c(F)c4[nH]3)C[C@H]2C)n1,25%
2.1 nM,99.1 nM,43 µL/min/mg,2.4,549 µg/mL,0.03,1760 ng/mL,15 min,519 ng·h/mL,31 µL/min/mg,,,C[C@@H]1CN(c2sc(C(F)(F)F)nc2-c2nc3cc(OCCO)ccc3[nH]2)CCN1C(=O)Cn1cnc2cccnc21,25%
3.3 nM,123 nM,18 µL/min/mg,3.7,> 1000 µg/mL,,1980 ng/mL,18 min,545 ng·h/mL,46 µL/min/mg,,,Cc1nc(C)n(CC(=O)N2CCN(c3sc(C(F)(F)F)nc3-c3nc4ccc(C5CCOCC5)cc4[nH]3)C[C@H]2C)n1,18%
,,27 µL/min/mg,3.4,> 1020 µg/mL,,30.5 ng/mL,180 min,54.6 ng·h/mL,,,,Cc1nc(C)n(CC(=O)N2CCN(c3sc(C(F)(F)F)nc3-c3nc4ccc(C5CCN(C)CC5)cc4[nH]3)C[C@H]2C)n1,-5%
3.6 nM,135 nM,21 µL/min/mg,3,> 920 µg/mL,,,,,,> 920 µg/mL,0.15,C[C@@H]1CN(c2sc(C(F)(F)F)nc2-c2nc3ccccc3[nH]2)CCN1C(=O)Cn1cnc2c1CCN(C)C2,33%
,,,,,,,,,,,,Cc1nc(C)n(CC(=O)N2CCN(c3sc(C(F)(F)F)nc3-c3nc4ccc(C(C)(C)O)c(F)c4[nH]3)C[C@H]2C)n1,18%
2.7 nM,330 nM,37 µL/min/mg,2.4,645 µg/mL,0.053,258 ng/mL,120 min,833 ng·h/mL,29 µL/min/mg,649 µg/mL,0.143,Cc1nn(CC(=O)N2CCN(c3sc(C(F)(F)F)nc3-c3nc4ccccc4[nH]3)C[C@H]2C)cc1CN(C)C,38%
23 nM,502 nM,,,,,,,,,,,C[C@@H]1CN(c2sc(C(F)(F)F)nc2-c2nc3ccccc3[nH]2)CCN1C(=O)Cc1cccc2cccnc12,78%
13 nM,191 nM,44 µL/min/mg,3.4,734 µg/mL,0.026,670 ng/mL,15 min,720 ng·h/mL,218 µL/min/mg,352 µg/mL,0.052,C[C@@H]1CN(c2sc(C(F)(F)F)nc2-c2nc3ccccc3[nH]2)CCN1C(=O)Cn1cccn1,54%

# From ChEMBL document CHEMBL5126609, “Design, Synthesis, and Pharmacological Evaluation of Benzimidazolo-thiazoles as Potent CXCR3 Antagonists with Therapeutic Potential in Autoimmune Diseases: Discovery of ACT-672125” (J Med Chem, 2022)
